Test results as given in patent publication US12077503B2, “Substituted cyclic amides and their use as herbicides” (FMC CORPORATION, priority 2015, dated 2024).

Legend:
Format in all cases: in vivo
[1] = system: giant foxtail (Setaria faberii); assay: Test A preemergence; conditions: Setaria faberi, pre-emergence, 240 h, 0 to 100 scale where 0 is no effect and 100 is complete control, read-out: Foxtail, Giant plant response rating
In short: (§1)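 Seeded soil received test chemicals as a preemergence directed spray, and seedlings at one to two leaves, 2–10 cm tall, received them postemergence, in a non-phytotoxic, surfactant-containing solvent mixture. Pots were held in a greenhouse for approximately 10 d, then rated for injury from 0, no effect, to 100, complete control.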

[2] = system: ryegrass, Italian (Italian ryegrass, Lolium multiflorum); assay: Test A preemergence; conditions: Lolium multiflorum, pre-emergence, 240 h, 0 to 100 scale where 0 is no effect and 100 is complete control, read-out: Ryegrass, Italian plant response rating
In short: as §1

Kochia (Kochia scoparia) [3] = assay: Test A preemergence; conditions: Bassia scoparia, pre-emergence, 240 h, 0 to 100 scale where 0 is no effect and 100 is complete control, read-out: Kochia plant response rating
In short: as §1

[4] = system: barnyardgrass (Echinochloa crus-galli); assay: Test A preemergence; conditions: Echinochloa crus-galli, pre-emergence, 240 h, 0 to 100 scale where 0 is no effect and 100 is complete control, read-out: Barnyardgrass plant response rating
In short: as §1

[5] = system: pigweed (Amaranthus retroflexus); assay: Test A preemergence; conditions: Amaranthus retroflexus, pre-emergence, 240 h, 0 to 100 scale where 0 is no effect and 100 is complete control, read-out: Pigweed plant response rating
[6] = system: ragweed (common ragweed, Ambrosia elatior); assay: Test A preemergence; conditions: Ambrosia artemisiifolia, pre-emergence, 240 h, 0 to 100 scale where 0 is no effect and 100 is complete control, read-out: Ragweed plant response rating
In short: as §1

[7] = system: ducksalad (Heteranthera limosa); assay: Test B flooded paddy test; conditions: Heteranthera limosa, 250 g ai/ha, Flood; 0 to 100 scale where 0 is no effect and 100 is complete control; read-out: Ducksalad plant response rating
In short: (§2)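 2-leaf plants; pots flooded 3 cm over soil; cpd added to paddy water; depth held; greenhouse 13–15 d; visual rating vs controls, 0 = no effect, 100 = complete control.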

[8] = system: sedge, umbrella (small-flower umbrella sedge, Cyperus difformis); assay: Test B flooded paddy test; conditions: Cyperus difformis, 250 g ai/ha, Flood; 0 to 100 scale where 0 is no effect and 100 is complete control; read-out: Sedge, Umbrella plant response rating
In short: as §2

rice (Oryra sativa) = assay: Test B flooded paddy test; conditions: Oryza sativa, 250 g ai/ha, Flood; 0 to 100 scale where 0 is no effect and 100 is complete control; read-out: Rice plant response rating
In short: as §2

[9] = system: barnyardgrass (Echinochloa crus-galli); assay: Test B flooded paddy test; conditions: Echinochloa crus-galli, 250 g ai/ha, Flood; 0 to 100 scale where 0 is no effect and 100 is complete control; read-out: Barnyardgrass plant response rating
In short: as §2

[10] = system: giant foxtail (Setaria faberii); assay: Test A postemergence; conditions: Setaria faberi, post-emergence, 240 h
In short: as §1

[11] = system: blackgrass (Alopecurus myosuroides); assay: Test A postemergence; conditions: Alopecurus myosuroides, post-emergence, 240 h
In short: as §1

[12] = system: ryegrass, Italian (Italian ryegrass, Lolium multiflorum); assay: Test A postemergence; conditions: Lolium multiflorum, post-emergence, 240 h
In short: as §1

corn (Zea mays) = assay: Test A postemergence; conditions: Zea mays, post-emergence, 240 h
In short: as §1

[13] = system: wheat (Triticum aestivum); assay: Test A postemergence; conditions: Triticum aestivum, post-emergence, 240 h
In short: as §1

Kochia (Kochia scoparia) [14] = assay: Test A postemergence; conditions: Bassia scoparia, post-emergence, 240 h
In short: as §1

[15] = system: barnyardgrass (Echinochloa crus-galli); assay: Test A postemergence; conditions: Echinochloa crus-galli, post-emergence, 240 h
In short: as §1

[16] = system: pigweed (Amaranthus retroflexus); assay: Test A postemergence; conditions: Amaranthus retroflexus, post-emergence, 240 h
In short: as §1

[17] = system: ragweed (common ragweed, Ambrosia elatior); assay: Test A postemergence; conditions: Ambrosia artemisiifolia, post-emergence, 240 h
In short: as §1

[18] = 125 g ai/ha, preemergence, approx. 10 d

Compound CC(C)Oc1cc([C@H]2CN(C)C(=O)[C@@H]2C(=O)Nc2cccc(F)c2F)ccc1F [Compound 1075] has a pest or weed control at 31 g/ha ([1]; 31 g ai/ha, Preemergence) of 100%, a pest or weed control at 125 g/ha [1, 18] of 100% and a pest or weed control at 31 g/ha ([2]; 31 g ai/ha, Preemergence) of 50%. For the same compound, the pest or weed control at 125 g/ha [2, 18] was 80%, the pest or weed control at 31 g/ha (Kochia (Kochia scoparia) [3]; 31 g ai/ha, Preemergence) was 0% and the pest or weed control at 125 g/ha (Kochia (Kochia scoparia) [3]; [18]) was 30%. The pest or weed control at 31 g/ha ([4]; 31 g ai/ha, Preemergence) was 100%, the pest or weed control at 125 g/ha [4, 18] was 100% and the pest or weed control at 31 g/ha ([5]; 31 g ai/ha, Preemergence) was 0%. It also gave a pest or weed control at 125 g/ha [5, 18] of 20%, a pest or weed control at 31 g/ha ([6]; 31 g ai/ha, Preemergence) of 30% and a pest or weed control at 125 g/ha [6, 18] of 20%. For the same compound, the pest or weed control at 250 g/ha [7] was 100%, the pest or weed control at 250 g/ha [8] was 0% and the pest or weed control at 250 g/ha (rice (Oryra sativa)) was 35%. The pest or weed control at 250 g/ha [9] was 75%, the pest or weed control at 125 g/ha ([10]; 125 g ai/ha, postemergence, visual injury on 0 to 100 scale (0 no effect, 100 complete control), approx. 10 d, read-out: Foxtail, Giant plant response rating) was 90% and the pest or weed control at 31 g/ha ([10]; Postemergence, 31 g ai/ha, visual injury after approx. 10 d, 0 to 100 scale, 0 no effect, 100 complete control, read-out: Plant response rating, Foxtail, Giant) was 80%. It also gave a pest or weed control at 125 g/ha ([11]; 125 g ai/ha, postemergence, visual injury on 0 to 100 scale (0 no effect, 100 complete control), approx. 10 d, read-out: Blackgrass plant response rating) of 50%, a pest or weed control at 31 g/ha ([11]; Postemergence, 31 g ai/ha, visual injury after approx. 10 d, 0 to 100 scale, 0 no effect, 100 complete control, read-out: Plant response rating, Blackgrass) of 40% and a pest or weed control at 125 g/ha ([12]; 125 g ai/ha, postemergence, visual injury on 0 to 100 scale (0 no effect, 100 complete control), approx. 10 d, read-out: Ryegrass, Italian plant response rating) of 70%. The pest or weed control at 31 g/ha ([12]; Postemergence, 31 g ai/ha, visual injury after approx. 10 d, 0 to 100 scale, 0 no effect, 100 complete control, read-out: Plant response rating, Ryegrass, Italian) was 0%, the plant injury at 125 g/ha (corn (Zea mays); 125 g ai/ha, postemergence, visual injury on 0 to 100 scale (0 no effect, 100 complete control), approx. 10 d, read-out: Corn plant response rating) was 70% and the Corn plant response rating (crop injury, 0 = no effect, 100 = complete kill) at 31 g/ha (corn (Zea mays); Postemergence, 31 g ai/ha, visual injury after approx. 10 d, 0 to 100 scale, 0 no effect, 100 complete control) was 20%. For the same compound, the plant injury at 125 g/ha ([13]; 125 g ai/ha, postemergence, visual injury on 0 to 100 scale (0 no effect, 100 complete control), approx. 10 d, read-out: Wheat plant response rating) was 60%, the plant injury at 31 g/ha ([13]; Postemergence, 31 g ai/ha, visual injury after approx. 10 d, 0 to 100 scale, 0 no effect, 100 complete control, read-out: Plant response rating, Wheat) was 0% and the pest or weed control at 125 g/ha (Kochia (Kochia scoparia) [14]; 125 g ai/ha, postemergence, visual injury on 0 to 100 scale (0 no effect, 100 complete control), approx. 10 d, read-out: Kochia plant response rating) was 30%. The pest or weed control at 31 g/ha (Kochia (Kochia scoparia) [14]; Postemergence, 31 g ai/ha, visual injury after approx. 10 d, 0 to 100 scale, 0 no effect, 100 complete control, read-out: Plant response rating, Kochia) was 30%, the pest or weed control at 125 g/ha ([15]; 125 g ai/ha, postemergence, visual injury on 0 to 100 scale (0 no effect, 100 complete control), approx. 10 d, read-out: Barnyardgrass plant response rating) was 90% and the pest or weed control at 31 g/ha ([15]; Postemergence, 31 g ai/ha, visual injury after approx. 10 d, 0 to 100 scale, 0 no effect, 100 complete control, read-out: Plant response rating, Barnyardgrass) was 90%. For the same compound, the pest or weed control at 125 g/ha ([16]; 125 g ai/ha, postemergence, visual injury on 0 to 100 scale (0 no effect, 100 complete control), approx. 10 d, read-out: Pigweed plant response rating) was 0%, the pest or weed control at 31 g/ha ([16]; Postemergence, 31 g ai/ha, visual injury after approx. 10 d, 0 to 100 scale, 0 no effect, 100 complete control, read-out: Plant response rating, Pigweed) was 0% and the pest or weed control at 125 g/ha ([17]; 125 g ai/ha, postemergence, visual injury on 0 to 100 scale (0 no effect, 100 complete control), approx. 10 d, read-out: Ragweed plant response rating) was 40%. It also gave a pest or weed control at 31 g/ha ([17]; Postemergence, 31 g ai/ha, visual injury after approx. 10 d, 0 to 100 scale, 0 no effect, 100 complete control, read-out: Plant response rating, Ragweed) of 0%.
